Read-outs that look alike come from different tables or passages of the source.
Columns and labels:
[1] = system: COLO 205 colorectal tumor cells; assay: Tumor cell viability inhibition assay (CellTiter-Glo 2.0, 72 hours); assay type: cell-based; conditions: COLO 205 cell viability
How it was run: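 COLO 205 cells (1500/well, RPMI-1640 + 10% FBS) exposed for 72 h to an 11-point, 4-fold dilution series; cellular ATP read by CellTiter-Glo 2.0 luminescence. Data normalized to DMSO and maximum-inhibition controls; IC50 from 4-parameter curve fit.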

human eIF4E protein = target: T1, human eIF4E protein (Homo sapiens, UniProt P06730); assay: Biochemical competitive binding assay (TR-FRET competition, EDA-m7GDP-ATTO-647N probe); conditions: read-out: hEIF4E TR-FRET IC50
T1 construct: purchased Novus NBP-45314
T1 sequence (P06730 whole entry): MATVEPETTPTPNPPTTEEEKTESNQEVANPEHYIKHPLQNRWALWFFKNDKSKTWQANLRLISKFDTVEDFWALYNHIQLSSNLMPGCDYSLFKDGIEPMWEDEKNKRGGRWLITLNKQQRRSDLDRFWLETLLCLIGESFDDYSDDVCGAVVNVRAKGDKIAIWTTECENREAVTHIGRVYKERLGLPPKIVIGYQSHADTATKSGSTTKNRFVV
How it was run: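 His-tagged human eIF4E (4 nM) was preincubated with Eu-anti-His antibody (2.5 nM) and added to compound (11-point, 4-fold dilutions) for 15 min. Then 5 nM EDA-m7GDP-ATTO-647N was added for 15 min, in HEPES pH 7.5, 100 mM KCl. The 665/620 TR-FRET ratio was normalized to controls, and IC50 was taken from 4-parameter fits.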

[2] = system: cyclin D1 protein levels in COLO 205 cells; assay: Cyclin D1 cellular inhibition assay (HTRF, 6 hours); assay type: cell-based; conditions: 6 hours of compound treatment, Cyclin D1 protein levels by HTRF, read-out: COLO 205 6 h Cyclin D1 TR-FRET IC50
How it was run: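 COLO 205 cells in RPMI-1640 with 10% FBS treated 6 h with 11-point compound dilutions at 1% DMSO final. Lysates assayed for cyclin D1 by HTRF. Signal normalized to DMSO and maximum-inhibition controls, with IC50 from 4-parameter fit.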

[3] = system: cap-dependent translation in Flp-In-293 reporter cells; assay: Cellular cap-dependent translation inhibition assay (dual luciferase assay, DLA; Fluc/Rluc ratio, 24 hours); assay type: cell-based; conditions: dual luciferase assay, Flp-In-293 reporter cells, 24 hours, Fluc/Rluc ratio, read-out: DLA 205 IC50

Cc1cc(-c2cc(Cl)ccc2OCCn2c(C)nc3c(c2=O)CC(N(CC2CC(F)(F)C2)C2CC2)CC3)c2scc(C(=O)NS(C)(=O)=O)c2n1 (single isomer, unassigned) [Compound 261]
IC50 [1]: < 5 µM
IC50 (human eIF4E protein): < 0.1 µM
IC50 [2]: 5 to 20 µM
IC50 [3]: < 1 µM

Cc1nc2c(c(=O)n1CC#Cc1ccc(Cl)cc1-c1ccnc3c(C(=O)O)csc13)C[C@H](N1CC[C@@H](F)C1)CC2 (single isomer, unassigned) [Compound 326]
IC50 ([1]; Homo sapiens, COLO 205, 72 h): < 5 µM
IC50 (human eIF4E protein): < 0.1 µM
IC50 ([2]; Homo sapiens, COLO 205, 6 h): < 5 µM
IC50 ([3]; Homo sapiens, Flp-In-293, 24 h): < 1 µM
